Experimental data reported in PubChem BioAssay (NCI).
“And” between values parts separate entries of the source, which are not always exact repeats. Identical values can stand only once.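 Where inhibition never reached the appropriate level, the endpoint shown equals the highest concentration tested. Otherwise, values were interpolated linearly from a five-concentration, 48-hour dose response in 96-well plates. Here, GI50 denotes the concentration required for 50% inhibition of growth. TGI marks complete inhibition of growth.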

Columns and labels:
Test in all cases: DTP human tumour cell line panel, 48 h
EKVX NSCLC = system: EKVX NSCLC
K-562 leukemia = system: K-562 leukemia
HCC-2998 colon = system: HCC-2998 colon
SNB-19 CNS = system: SNB-19 CNS
LXFL 529 NSCLC = system: LXFL 529 NSCLC
786-0 renal = system: 786-0 renal
RXF 393 renal = system: RXF 393 renal
M19-MEL melanoma = system: M19-MEL melanoma
TK-10 renal = system: TK-10 renal
T-47D breast = system: T-47D breast

Row | Structure (SMILES) | TGI (EKVX NSCLC) [µM] | TGI (K-562 leukemia) [µM] | TGI (HCC-2998 colon) [µM] | TGI (SNB-19 CNS) [µM] | TGI (LXFL 529 NSCLC) | TGI (786-0 renal) | TGI (RXF 393 renal) [µM] | TGI (M19-MEL melanoma) [µM] | TGI (TK-10 renal) | TGI (T-47D breast) [µM] | GI50 (EKVX NSCLC) [µM] | GI50 (HCC-2998 colon) [µM] | GI50 (LXFL 529 NSCLC) [µM] | GI50 (786-0 renal) [µM] | GI50 (RXF 393 renal) | GI50 (M19-MEL melanoma) [µM] | GI50 (TK-10 renal) [µM]
1 | O=CN/C=C/c1ccccc1O | > 100 | > 31.6 | > 100 | > 100 | > 100 µM | > 100 µM | > 100 | > 100 | > 100 µM |  |  |  |  |  |  |  | 
2 | N#Cc1ccccc1/C=N/O | > 100 | > 65.6 | > 100 | > 100 | > 100 µM | > 100 µM | > 100 | > 100 | > 100 µM |  |  |  |  |  |  |  | 
3 | O=C1CSc2ccncc2N1 | > 100 | > 100 | > 100 | > 100 | > 100 µM | > 100 µM | > 100 | > 100 | > 100 µM |  |  |  |  |  |  |  | 
4 | COc1cc([C@@H]2c3cc4c(cc3[C@@H](NC(=O)c3ccc([N+](=O)[O-])cc3)C3COC(=O)[C@@H]32)OCO4)cc(OC)c1O (stereo partly specified) | 6.55 | > 100 | 3.44 | 6.06 | > 100 µM | 1.4 µM | 34.8 | 19 | 5.86 µM |  |  |  |  |  |  |  | 
5 | Cn1c(C2CC(C)(C)c3c2c2ccccc2n3C)cc2ccccc21 (stereo unspecified) | > 304 | > 304 | > 304 | > 304 | > 304 µM | > 304 µM | > 304 | > 304 | > 304 µM |  |  |  |  |  |  |  | 
6 | COC1(C)Cc2c(c(C)c(O)c3c2C(=O)C=C(Cl)C3=O)O1 (stereo unspecified) | > 100 | 36.8 | > 100 | > 100 | 28.9 µM | > 100 µM | 31.8 | 38.9 | 45.6 µM | 36.7 |  |  |  |  |  |  | 
7 | CC1=NN(c2ccccc2)C(=O)C1C(=O)C(=O)Nc1ccc(C)cc1C (stereo unspecified) | > 100 | > 100 | > 100 | > 100 | > 100 µM | > 100 µM | > 100 | > 100 | > 100 µM | > 100 |  |  |  |  |  |  | 
8 | O=C1CC23CC(=O)CC2(C1)c1ccccc1C3=O (stereo unspecified) | > 100 | > 100 | > 100 | > 100 | > 100 µM | > 100 µM | > 100 | > 100 | > 100 µM |  |  |  |  |  |  |  | 
9 | CCCN1CN(C(C(=O)N[C@@H]2C(=O)N3C(C(=O)O)=C(C)CSC23)c2ccccc2)CSC1=S (stereo partly specified) | > 100 | > 100 |  | > 100 | > 100 µM | > 100 µM | 82.5 | > 100 | > 100 µM |  |  |  |  |  |  |  | 
10 | O=c1[nH]c(C2CCCCC2)nc2cc(Cl)ccc12 | > 100 | > 100 | > 100 | > 100 | > 100 µM | > 100 µM | > 100 | > 100 | > 100 µM |  |  |  |  |  |  |  | 
11 | C/C(CC(=O)Nc1ccc([N+](=O)[O-])cc1)=N/N=C(N)N | > 100 | > 100 | > 100 |  | > 100 µM | > 100 µM | > 100 | > 100 | > 100 µM |  |  |  |  |  |  |  | 
12 | Cn1c(-c2ccccc2)c/c(=N\NS(C)(=O)=O)c2cc(S(=O)(=O)O)ccc21 | > 100 | > 100 | > 100 | > 100 | > 100 µM | > 100 µM | > 100 | > 100 | > 100 µM |  |  |  |  |  |  |  | 
13 | Cc1cc(NC(=O)C(=O)Cc2nc3ccccc3s2)ccc1Cl | > 100 | > 100 | > 100 | > 100 | > 100 µM | > 100 µM | > 100 | > 100 | > 100 µM | > 100 |  |  |  |  |  |  | 
14 | [O-][N+]1=C(c2ccccc2)COc2ccccc21 |  | > 100 | > 100 | > 100 | > 100 µM | > 100 µM | > 100 | > 100 | > 100 µM |  |  |  |  |  |  |  | 
15 | O=C(CCc1cc(-c2ccco2)n(-c2ccc([N+](=O)[O-])cc2[N+](=O)[O-])n1)Nc1ccccc1 | > 100 | > 100 | > 100 | > 100 | > 100 µM | > 100 µM | > 100 | > 100 |  |  |  |  |  |  |  |  | 
16 | COC(=O)C12OCC34C(CC5C(C)=CC(=O)C(O)C5(C)C3C(O)C1O)OC(=O)C(OC(=O)CC(C)C)C24 (stereo unspecified) |  |  |  |  | 0.0825 µM and 0.104 µM | 0.107 µM and 0.207 µM |  |  | 0.16 µM and 0.477 µM | 0.006 | 0.0612 | < 0.0281 | 0.00384 | 0.0223 | 0.0427 µM and 0.05 µM | < 0.0377 | 0.0166
17 | COC(=O)C1CCc2nnc(-c3cccnc3)n21 (stereo unspecified) | > 100 | > 100 | > 100 | > 100 | > 100 µM | > 100 µM | > 100 | > 100 | > 100 µM |  |  |  |  |  |  |  | 
18 | COC(=O)/C(Cl)=C1/CC1COCc1ccccc1 (stereo unspecified) | > 10 | 49.9 | > 10 | > 100 | 31.1 µM | 42.2 µM | 37.8 | 93.2 | > 100 µM |  |  |  |  |  |  |  | 
19 | CC(C)(C)C1CCN(C(=O)c2ccccc2)CC1 | > 100 | > 100 | > 100 | > 100 | > 100 µM | > 100 µM | > 100 | > 100 | > 100 µM |  |  |  |  |  |  |  | 
20 | COC1=CC(=O)C2[C@H]3Cc4ccccc4[C@H]3C2(C)C1=O (stereo partly specified) | > 100 | > 100 | > 100 | > 100 | > 100 µM | > 100 µM | > 100 | > 100 | > 100 µM |  |  |  |  |  |  |  | 
